Consider four compounds from US9689040B2, “Selective inhibitors of tumor-initiating cells” (Children's Medical Center Corporation, priority 2011, dated 2017).

Where two headings read alike, the source gives them in different places.

For one data set, the system named is TGS transcripts. The conditions noted are these: Instance ID 6709, cited from earlier work.
For another data set, the system named is BPE cells. The conditions noted are these: for BPE viability: at the indicated dose.
For another data set, the system named is HMLER cells. The data set can be described thus: qRT-PCR of TGS transcripts after TSA treatment. Format: cell-based, human. The conditions noted are these: 1 μM TSA, 24 hr. Here is the method:
(§1) The CMAP data predicted that TSA would suppress expression of 52 TGS transcripts by ≧1.8-fold (Table 6). We measured the change in expression of the top 11 of these transcripts in BPLER and HMLER cells treated with TSA.
(§2) qRT-PCR analysis was performed as described^41. Briefly, total RNA was extracted with TRIZOL (Invitrogen) and cDNA prepared from 600-900 ng total RNA using TH[…] kit (Invitrogen) as per the manufacturer's instructions. 2.5 ul of diluted cDNA (1:20) was used as template for qPCR using POWER SYBR-GREEN MASTER MIX (Applied Biosystems) and BIORAD C1000 THERMAL CYCLER (Biorad). Primer sequences are available upon request. Relative CT values were normalized to […]-actin and converted to a linear scale using the −ΔCT method.

For data set [1], the system named is BPLER cells. The data set can be described thus: qRT-PCR of TGS transcripts after TSA treatment. Format: cell-based, human. The conditions noted are these: 1 μM TSA, 24 hr. The method, then:
as §1, §2
In general terms: In qPCR the cycle at which signal appears reflects the starting amount.

The test system of data set [2] is BPLER cells. The data set can be described thus: Cell viability after drug treatment (CellTiterGlo / Trypan-Blue). Format: cell-based, human. The conditions noted are these: increasing doses, 24 hr. For orientation: ATP-based viability assays read luminescence as a measure of living cells.
Data set [3] concerns BPLER cells. The data set can be described thus: Apoptosis (Annexin V/PI flow cytometry, caspase 3 and PARP cleavage immunoblot). Format: cell-based, human. The conditions noted are these: 24 hours. Here is the method: BPLER were used as control. […] The percentage of double-positive cells is indicated.
To further define factors underlying such properties of BPLER cells, we first determined the molecular mechanism by which proteasome inhibition affects the growth of these cells.
Immunoblot was performed as described^41. Primary antibodies were as follows: cleaved Caspase 3 (Cell Signaling, rabbit polyclonal, 1:1000), PARP1 (Santa Cruz, rabbit polyclonal, 1:500), MCL1 (Cell Signaling, Rabbit polyclonal, 1:1000), Bim (Santa Cruz, rabbit polyclonal, 1:500), Bik (Cell Signaling, rabbit polyclonal, 1:1000), Puma (Cell Signaling, rabbit polyclonal, 1:1000), Noxa (Calbiochem, mouse monoclonal, 1:500), Bid (Santa Cruz, rabbit polyclonal, 1:500), Bad (Santa Cruz, rabbit polyclonal, 1:500). Antibodies were diluted in 5% milk in TBS-T and incubated O.N. at 4° C. Secondary mouse and rabbit HRP-conjugated antibodies were from Amersham. Protein signal was detected using the ECL Plus kit (Amersham). For flow cytometry, cells were stained as previously described^33, using the following fluorescent-conjugated antibodies: CD44 (BD Biosciences), CD24 (BD Biosciences), CD326 (ESA, Biolegend), Annexin V (Invitrogen). For immunofluorescence microscopy, cells were fixed in 2% PFA for 10 min, permeabilized with 1% Triton X in PBS for 5 min, and incubated with primary antibodies in 0.5% Triton X, 1% FBS in PBS for 30 min at RT. Antibodies were: CK18 (Santa Cruz, mouse monoclonal, 1:100) and CK14 (Millipore, mouse monoclonal, 1:100). After washing the cells were stained sequentially with AlexaFluor647-conjugated secondary antibody (Invitrogen, 1:200) and DAPI (Sigma, 1:5000). For immunohistochemistry, BPLER tumor sections were prepared from paraffin-embedded tissues, deparaffinized and treated with 10% citrate buffer for 15 min. Staining was performed using a BIOGENEX IHC DAB kit (Biogenex) following the manufacturer's protocol. Primary antibodies were: CK14 (Millipore, mouse monoclonal, 1:100), CK5 (Millipore, mouse monoclonal, 1:100), HH3 (Cell Signaling, rabbit polyclonal, 1:100), ER (Abcam, mouse monoclonal, 1:100), Vimentin (Invitrogen, mouse monoclonal 1:100), Ki67 (Millipore, mouse monoclonal, 1:100).

The test system of data set [4] is BPE, HMLER and BPLER cells. The data set can be described thus: Cell cycle distribution (propidium iodide DNA staining). The conditions noted are these: BPE, HMLER and BPLER, 24 hours.

Take `CC(/C=C/C(=O)NO)=C\[C@@H](C)C(=O)c1ccc(N(C)C)cc1` [TSA, Trichostatin A]: the Amplitude with TGS transcripts (BUB1, probe set 215509_s_at) was −0.84; in the data set on TGS transcripts (C7orf25 /// PSMA2, probe set 221573_at), −0.7; in the data set with TGS transcripts (C12orf10, probe set 218220_at), −0.5; with TGS transcripts (C19orf29, probe set 215954_s_at), −0.49; with TGS transcripts (CANX, probe set 208852_s_at), −0.55; in the data set on TGS transcripts (CANX, probe set 208853_s_at), −0.81. In addition, the Amplitude in the data set on TGS transcripts (CCNA2, probe set 203418_at) is −0.83; with TGS transcripts (CCNA2, probe set 213226_at) it was −0.63; with TGS transcripts (CDC5L, probe set 209055_s_at) it was −1.19; in the data set on TGS transcripts (CDK13, probe set 207318_s_at), −0.87; in the data set on TGS transcripts (CDK13, probe set 207319_s_at), −0.79; in the data set with TGS transcripts (CDK17, probe set 206474_at), −0.74. Besides, the Amplitude in the data set on TGS transcripts (CDK17, probe set 221918_at) is given as −0.66; in the data set on TGS transcripts (DDX19A /// DDX19B, probe set 202576_s_at) it was −0.73; in the data set with TGS transcripts (DHX8, probe set 203334_at) it was −0.45; in the data set on TGS transcripts (DNAJC11, probe set 215792_s_at), −0.47; in the data set on TGS transcripts (DYSF, probe set 218660_at) it was −0.43; with TGS transcripts (FYCO1, probe set 218204_s_at) it was −0.5. The Amplitude is listed as −1.17 in the data set with TGS transcripts (GAPDH, probe set AFFX-HUMGAPDH/M33197_5_at); −0.62 with TGS transcripts (GAPDH, probe set AFFX-HUMGAPDH/M33197_M_at); −0.46 with TGS transcripts (HIPK3, probe set 210148_at); −0.44 with TGS transcripts (LSM2, probe set 209449_at); −1.46 with TGS transcripts (MCL1, probe set 200796_s_at); −0.77 with TGS transcripts (MFSD5, probe set 212861_at). Also, the Amplitude in the data set with TGS transcripts (MGAT2, probe set 203101_s_at) is recorded as −0.67; with TGS transcripts (MTA2, probe set 203444_s_at), −0.74; in the data set on TGS transcripts (NAA38, probe set 219119_at) it was −0.47; in the data set with TGS transcripts (NDC80, probe set 204162_at), −1.07; in the data set with TGS transcripts (NME3, probe set 204862_s_at), −0.6; in the data set on TGS transcripts (NUP205, probe set 212247_at), −0.65. For the same compound, the Amplitude with TGS transcripts (PDCD4, probe set 202731_at) is −1.07; in the data set with TGS transcripts (PFKL, probe set 201102_s_at), −0.67; in the data set with TGS transcripts (POLR2F, probe set 209511_at), −0.43; in the data set on TGS transcripts (PRC1, probe set 218009_s_at), −0.67; in the data set with TGS transcripts (PSMA1, probe set 201676_x_at), −0.4; in the data set with TGS transcripts (PSMA1, probe set 210759_s_at), −0.74. The Amplitude in the data set on TGS transcripts (PSMA1, probe set 211746_x_at) is reported as −0.45; in the data set with TGS transcripts (PSMA2, probe set 201317_s_at), −0.41; in the data set on TGS transcripts (PSMA3, probe set 201532_at), −0.63; with TGS transcripts (PSMB4, probe set 202243_s_at) it was −0.43; in the data set on TGS transcripts (PSMC1, probe set 204219_s_at) it was −0.53; in the data set with TGS transcripts (PSMC3, probe set 201267_s_at), −1.66. The Amplitude in the data set on TGS transcripts (PSMD7, probe set 201705_at) is on record as −1.01; in the data set on TGS transcripts (RAN, probe set 200750_s_at), −0.48; in the data set with TGS transcripts (RBM22, probe set 218134_s_at), −0.75; with TGS transcripts (RBMX, probe set 213762_x_at), −0.58; in the data set on TGS transcripts (SCD, probe set 211162_x_at), −0.92; in the data set on TGS transcripts (SCD, probe set 211708_s_at), −0.83. For the same compound, the Amplitude in the data set with TGS transcripts (SH3GL3, probe set 211565_at) is −0.64; with TGS transcripts (SNW1, probe set 215424_s_at), −1.16; in the data set on TGS transcripts (TMED3, probe set 208837_at), −0.42; in the data set on TGS transcripts (TMEM14B, probe set 221452_s_at), −0.48; in the data set on TGS transcripts (TNPO1, probe set 207657_x_at), −0.42; in the data set with TGS transcripts (TNPO1, probe set 209226_s_at), −0.68. Moreover, the Amplitude in the data set on TGS transcripts (USP39, probe set 217829_s_at) is reported as −0.56; in the data set on TGS transcripts (probe set 200749_at (gene symbol —)) it was −0.5. Besides, the BPE viability entry with BPE cells is reported as “no effect on BPE viability”. Moreover, the “combination with bortezomib: cytotoxicity in untransformed BPE cells” value in the data set with BPE cells (in vitro) was “not cytotoxic”. Further, the “expression of the top 11 predicted TGS transcripts” value in the data set with HMLER cells is “All but two of these also had significantly reduced expression”; with BPLER cells [1], “significantly decreased”. Besides, in the data set on BPLER cells [2], the “sensitivity of BPLER relative to HMLER cells (viability)” value is “selectively lethal for BPLER compared to HMLER”.
With `O=C(CCCCCCC(=O)Nc1ccccc1)NO` [Vorinostat, N′-hydroxy-N-phenyl-octanediamide], in the data set with BPE cells, the BPE viability entry is “no effect on BPE viability”. In the data set with BPLER cells [2], the “sensitivity of BPLER relative to HMLER cells (viability)” value is listed as “selectively lethal for BPLER compared to HMLER”.
In the case of `COc1cccc2c1C(=O)c1c(O)c3c(c(O)c1C2=O)C[C@@](O)(C(=O)CO)C[C@@H]3O[C@H]1C[C@H](N)[C@H](O)[C@H](C)O1` [doxorubicin], the “sensitivity of BPLER relative to HMLER cells (viability)” value with BPLER cells [2] was “responded similarly”.
Consider `COC(=O)Nc1nc2ccc(C(=O)c3cccs3)cc2[nH]1` [nocodazole], for which the “activation of apoptosis by mitotic arrest” value with BPLER cells [3] is recorded as “sufficient to activate apoptosis in BPLER cells”. Moreover, the mitotic arrest entry in data set [4] is reported as “underwent mitotic arrest”.
